Experimental data published in patent US20250092065A1, “2-(INDAZOL-5-YL)-6-(PIPERIDIN-4-YL)-1,7-NAPHTHYRIDINE DERIVATIVES AND RELATED COMPOUNDS AS MODULATORS FOR SPLICING NUCLEIC ACIDS AND FOR THE TREATMENT OF PROLIFERATIVE DISEASES” (REMIX THERAPEUTICS INC., priority 2022, published 2025).
Read-outs that look alike come from different tables or passages of the source.

Experiments:
Assay type in all cases: cell-based, human
MYB mRNA = experiment: RT-qPCR splicing assay, MYB mRNA canonical (CJ) and alternative (AJ) junction; details: Homo sapiens; for AC50: MYB alternative junction mRNA, read-out: MYB AJ (increase in AJ mRNA, AC50)
How it was run: (§1)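 Both isoforms, CJ and AJ, read by qPCR from crude lysates of treated A673 or K562 cells; 24 h, 37 °C, maximum 10 uM. Normalization: housekeeper ΔCt, then DMSO ΔΔCt.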

HTT mRNA = experiment: RT-qPCR splicing assay, HTT mRNA canonical (CJ) and alternative (AJ) junction; details: Homo sapiens; for AC50: HTT alternative junction mRNA, read-out: HTT AJ (increase in AJ mRNA, AC50)
How it was run: as §1

HTT = experiment: HiBiT protein abundance assay, HTT (K562 HiBiT knock-in); details: HiBiT knock-in K562 cells, 24 hours, top dose 10 μM
How it was run: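 Tagged-protein levels were measured as HiBiT/LgBiT luminescence in lysed K562 knock-in cells exposed to serially diluted compound (up to 10 μM final) for 24 hours. A four-parameter logistic regression of control-normalized signal yielded the IC50.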

[1] = MYB canonical junction mRNA, RT-qPCR, read-out: MYB CJ (decrease in CJ mRNA levels, IC50)
[2] = canonical junction qPCR panel, Table 4, read-out: MYB IC50 (decrease in CJ mRNA levels)
[3] = HTT canonical junction mRNA, RT-qPCR, read-out: HTT CJ (decrease in CJ mRNA levels, IC50)
[4] = canonical junction qPCR panel, Table 4, read-out: HTT IC50 (decrease in CJ mRNA levels)

SMILES	IC50 (MYB mRNA; [1])	IC50 (MYB mRNA; [2])	IC50 (HTT mRNA; [3])	IC50 (HTT mRNA; [4])	IC50 (HTT)	AC50 (MYB mRNA; RT-qPCR)	AC50 (HTT mRNA; RT-qPCR)
Cc1nc2c(F)c(O)c(-c3ccc4nc(N5CCC(NC6CCC6)C5)ccc4n3)cc2o1 (centres unmarked) [Compound 293, 6-{6-[3-(cyclobutylamino)pyrrolidin-1-yl]-1,5-naphthyridin-2-yl}-4-fluoro-2-methyl-1,3-benzoxazol-5-ol]	< 100 nM	< 100 nM	< 100 nM	< 100 nM	< 100 nM	< 100 nM	< 100 nM
Cn1cc2cc(-c3ccc4nc(N5CCC(NC67CC(C6)C7)C5)ccc4n3)c(O)cc2n1 (centres unmarked) [Compound 297, 5-[6-(3-{bicyclo[1.1.1]pentan-1-ylamino}pyrrolidin-1-yl)-1,5-naphthyridin-2-yl]-2-methylindazol-6-ol]	1000 to 10000 nM	1000 to 10000 nM	1000 to 10000 nM	1000 to 10000 nM	1000 to 10000 nM	100 to 1000 nM	1000 to 10000 nM
Cn1cc2nc(-c3ccc4nc(N5CCC(NC(C)(C)C)C5)ccc4n3)c(O)cc2n1 (centres unmarked) [Compound 298, 5-{6-[3-(tert-butylamino)pyrrolidin-1-yl]-1,5-naphthyridin-2-yl}-2-methylpyrazolo[4,3-b]pyridin-6-ol]	< 100 nM	< 100 nM	< 100 nM	< 100 nM	< 100 nM	< 100 nM	< 100 nM
Cn1cc2cc(-c3ccc4nc(N5CC[C@H](N[C@H]6C[C@@H](F)C6)C5)ccc4n3)c(O)cc2n1 [Compound 299, 2-methyl-5-{6-[(3S)-3-{[(1s,3s)-3-fluorocyclobutyl]amino}pyrrolidin-1-yl]-1,5-naphthyridin-2-yl}indazol-6-ol]	< 100 nM	< 100 nM	< 100 nM	< 100 nM	< 100 nM	< 100 nM	100 to 1000 nM
Cc1c(O)c(-c2ccc3nc(N4CCC(NC5COC5)C4)ccc3n2)cc2cn(C)nc12 (centres unmarked) [Compound 302, 2,7-dimethyl-5-{6-[3-(oxetan-3-ylamino)pyrrolidin-1-yl]-1,5-naphthyridin-2-yl}Indazol-6-ol]	100 to 1000 nM	100 to 1000 nM	100 to 1000 nM	100 to 1000 nM	100 to 1000 nM	100 to 1000 nM	100 to 1000 nM
Cc1nc2c(C)c(O)c(-c3ccc4nc(N5CCC(NC6(C)CC6)C5)ccc4n3)cc2o1 (centres unmarked) [Compound 309, 2,4-dimethyl-6-(6-{3-[(1-methylcyclopropyl)amino]pyrrolidin-1-yl}-1,5-naphthyridin-2-yl)-1,3-benzoxazol-5-ol]	< 100 nM	< 100 nM	< 100 nM	< 100 nM	< 100 nM	< 100 nM	< 100 nM
Cc1nc2c(C)c(O)c(-c3ccc4nc(N5CCC(NC(C)C)C5)ccc4n3)cc2o1 (centres unmarked) [Compound 312, 6-{6-[3-(isopropylamino)pyrrolidin-1-yl]-1,5-naphthyridin-2-yl}-2,4-dimethyl-1,3-benzoxazol-5-ol]	< 100 nM	< 100 nM	< 100 nM	< 100 nM	< 100 nM	< 100 nM	< 100 nM

Continued, in another order:

IC50 (MYB mRNA; [1])	IC50 (MYB mRNA; [2])	IC50 (HTT mRNA; [3])	IC50 (HTT mRNA; [4])	IC50 (HTT)	SMILES	AC50 (MYB mRNA; RT-qPCR)	AC50 (HTT mRNA; RT-qPCR)
< 100 nM	< 100 nM	< 100 nM	< 100 nM	< 100 nM	Cn1cc2cc(-c3ccc4nc(N5CCC(NC6CCC6)C5)ccc4n3)c(O)c(F)c2n1 (centres unmarked) [Compound 315, 5-{6-[3-(cyclobutylamino)pyrrolidin-1-yl]-1,5-naphthyridin-2-yl}-7-fluoro-2-methylindazol-6-ol]	< 100 nM	< 100 nM
< 100 nM	< 100 nM	< 100 nM	< 100 nM	< 100 nM	Cc1c(O)c(-c2ccc3nc(N4CCC(NC(C)C)C4)ccc3n2)cc2cn(C)nc12 (centres unmarked) [Compound 318, 5-{6-[3-(isopropylamino)pyrrolidin-1-yl]-1,5-naphthyridin-2-yl}-2,7-dimethylindazol-6-ol]	< 100 nM	< 100 nM
< 100 nM	< 100 nM	< 100 nM	< 100 nM	< 100 nM	Cc1c(O)c(-c2ccc3nc(N4CC[C@H](NC(C)C)C4)ccc3n2)cc2cn(C)nc12 [Compound 320]	< 100 nM	< 100 nM
< 100 nM	< 100 nM	< 100 nM	< 100 nM	< 100 nM	Cc1nc2c(F)c(O)c(-c3ccc4nc(N5CCC(NC6(C)CC6)C5)ccc4n3)cc2o1 (centres unmarked) [Compound 325, 4-fluoro-2-methyl-6-(6-{3-[(1-methylcyclopropyl)amino]pyrrolidin-1-yl}-1,5-naphthyridin-2-yl)-1,3-benzoxazol-5-ol]	< 100 nM	< 100 nM
< 100 nM	< 100 nM	< 100 nM	< 100 nM	< 100 nM	Cc1nc2c(F)c(O)c(-c3ccc4nc(N5CCC(NC(C)C)C5)ccc4n3)cc2o1 (centres unmarked) [Compound 328, 4-fluoro-6-{6-[3-(isopropylamino)pyrrolidin-1-yl]-1,5-naphthyridin-2-yl}-2-methyl-1,3-benzoxazol-5-ol]	< 100 nM	< 100 nM
< 100 nM	< 100 nM	100 to 1000 nM	100 to 1000 nM	100 to 1000 nM	CN[C@@H]1CCN(c2ccc3nc(-c4cc(F)c5nc(C)cn5c4)ncc3n2)C1 [Compound 331, (3R)-1-(2-{8-fluoro-2-methylimidazo[1,2-a]pyridin-6-yl}pyrido[3,2-d]pyrimidin-6-yl)-N-methylpyrrolidin-3-amine]	100 to 1000 nM	100 to 1000 nM
100 to 1000 nM	100 to 1000 nM	100 to 1000 nM	100 to 1000 nM	100 to 1000 nM	CN[C@H]1CCN(c2ccc3nc(-c4cc(F)c5nc(C)cn5c4)ncc3n2)C1 [Compound 332, (S)-1-(2-(8-fluoro-2-methylimidazo[1,2-a]pyridin-6-yl)pyrido[3,2-d]pyrimidin-6-yl)-N-methylpyrrolidin-3-amine]	100 to 1000 nM	100 to 1000 nM
100 to 1000 nM	100 to 1000 nM	100 to 1000 nM	100 to 1000 nM	100 to 1000 nM	CC(C)(C)NC1CCN(c2ccc3nc(-c4cc5oc(C6CC6)nc5cc4O)ccc3n2)C1 (centres unmarked) [Compound 333, 6-{6-[3-(tert-butylamino)pyrrolidin-1-yl]-1,5-naphthyridin-2-yl}-2-cyclopropyl-1,3-benzoxazol-5-ol]	100 to 1000 nM	100 to 1000 nM
100 to 1000 nM	100 to 1000 nM	100 to 1000 nM	100 to 1000 nM	100 to 1000 nM	COCc1nc2cc(O)c(-c3ccc4nc(N5CCC(NC(C)(C)C)C5)ccc4n3)cc2o1 (centres unmarked) [Compound 334, 6-{6-[3-(tert-butylamino)pyrrolidin-1-yl]-1,5-naphthyridin-2-yl}-2-(methoxymethyl)-1,3-benzoxazol-5-ol]	100 to 1000 nM	100 to 1000 nM
1000 to 10000 nM	1000 to 10000 nM	1000 to 10000 nM	1000 to 10000 nM	1000 to 10000 nM	COc1cc2nc(C3COC3)oc2cc1-c1ccc2nc(N3CCC(NC(C)(C)C)C3)ccc2n1 (centres unmarked) [Compound 335]	1000 to 10000 nM	1000 to 10000 nM
